The target in test [1] is T1, CD73 (Homo sapiens, UniProt P21589).
T1 sequence (P21589 27-549): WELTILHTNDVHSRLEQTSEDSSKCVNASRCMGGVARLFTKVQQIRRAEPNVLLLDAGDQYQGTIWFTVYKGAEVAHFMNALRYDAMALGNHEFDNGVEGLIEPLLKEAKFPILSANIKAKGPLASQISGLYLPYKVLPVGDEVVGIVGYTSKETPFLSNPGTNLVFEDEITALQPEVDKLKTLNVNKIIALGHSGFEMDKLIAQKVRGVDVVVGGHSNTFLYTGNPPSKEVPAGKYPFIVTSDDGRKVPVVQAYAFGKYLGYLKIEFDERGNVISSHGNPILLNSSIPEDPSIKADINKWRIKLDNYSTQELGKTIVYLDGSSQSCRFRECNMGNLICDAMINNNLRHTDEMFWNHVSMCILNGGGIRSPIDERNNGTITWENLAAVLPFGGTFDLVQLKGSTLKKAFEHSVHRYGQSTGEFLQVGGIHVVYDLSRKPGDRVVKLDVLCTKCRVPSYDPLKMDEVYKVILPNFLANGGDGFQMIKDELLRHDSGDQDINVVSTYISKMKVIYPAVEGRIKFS
Description: MDA-MB-231 Cell Based CD73 Activity Assay (DMEM). The following applies: MDA-MB-231-GFP cells, DMEM with 10% human plasma, overnight compound treatment, 200 uM AMP, 100 mins. More on the design: endogenous in cells; host or cells: MDA-MB-231-GFP. Here is the method:
Cells were plated into assay plate with compounds pre-spotted, for an overnight compound treatment. 50 uL of 400 uM AMP (final concentration will be 200 uM) was added using Bio-tek dispenser. Plates were incubated for 100 mins. 20 uL of supernatant was transferred into 384-well NUNC plate pre-filled with 60 ul Quench buffer (80% organic and 20% water+0.1% FA) with internal standard. The plates were spun down at 4500 rpm for 20 mins, then 20 ul of supernatant was transferred to another Nunc plate prefilled with 80 ul of water. The samples were analyzed using Rapid fire.

Test [2] deals with T1, CD73. Description: CD73 Biochemical IC50 Assay. The conditions noted are these: CD73 enzyme (R&D system) final 0.3 nM, final AMP 15 uM, 60 mins incubation, Rapid fire. Here is the method: CD73 Biochemical IC50 Assay
Compound serial dilutions were pre-spotted into Thermo Nunc assay plate. 50 μL CD73 enzyme buffer (CD73 purchased from R&D system=0.6 nM, 25 mM Tris, pH 7.4, 5 mM MgCl2, 1 mM NaH2PO4) was added into the assay plate and incubated for 15 mins. […] After incubation for 60 mins, the supernatant 20 uL was transferred into 384-well NUNC plate pre-filled with 60 ul Quench buffer (80% organic and 20% water+0.1% FA) with internal standard. The plate was spun down at 4500 rpm for 20 mins, then 20 μl of supernatant was transferred to another Nunc plate prefilled with 80 μl of water. The samples were run using Rapid fire.

Drawing on patent US20240116928A1 (Gilead Sciences, Inc., priority 2022, published 2024), this text covers EC50 and IC50 for six compounds.

Usually EC50 stands for the concentration giving half of the maximal effect. As a reminder, the IC50 is the midpoint of a concentration-inhibition curve. Higher therefore signals lower potency. Take `Cc1cc(O[C@H]2CN(c3cc(-c4c[nH]c(=O)[nH]c4=O)nc(C)n3)CC2(F)F)ccn1` [Example 24, (S)-6-(3,3-difluoro-4-((2-methylpyridin-4-yl)oxy)pyrrolidin-1-yl)-2-methyl-[4,5′-bipyrimidine]-2′,4′ (1′H,3′H)-dione]: in test [1], the EC50 was > 50 nM. For the same compound, the IC50 in test [2] worked out at 7.67 nM.

In test [1], `Cc1nc(-c2c[nH]c(=O)[nH]c2=O)cc(N2C[C@H](Oc3cc(C4(C(F)(F)F)CC4)ccn3)C(F)(F)C2)n1` [Example 25, (S)-6-(3,3-difluoro-4-((4-(1-(trifluoromethyl)cyclopropyl)pyridin-2-yl)oxy)pyrrolidin-1-yl)-2-methyl-[4,5′-bipyrimidine]-2′,4′ (1′H,3′H)-dione] displayed an EC50 of 5.31 nM. Moreover, the half-maximal inhibitory concentration (IC50) in test [2] stood at 4 nM.

For the compound `Cc1nc(OCC(F)(F)COC(=O)NC(C)C)cc(-c2c[nH]c(=O)[nH]c2=O)n1` [Example 26], the EC50 in test [1] was > 50 nM. Moreover, in test [2], the IC50 turned out to be 7.06 nM.

In the case of `Cc1nc(-c2c[nH]c(=O)[nH]c2=O)cc(N2C[C@H](Oc3cc4c(cn3)c(C)nn4CC(F)(F)F)C(F)(F)C2)n1` [Example 28, (S)-6-(3,3-difluoro-4-((3-methyl-1-(2,2,2-trifluoroethyl)-1H-pyrazolo[4,3-c]pyridin-6-yl)oxy)pyrrolidin-1-yl)-2-methyl-[4,5′-bipyrimidine]-2′,4′ (1′H,3′H)-dione], a half-maximal effect in test [1] (EC50) was put at 6.38 nM. Moreover, in test [2], the IC50 came to 7.16 nM.

Regarding `Cc1nc(-c2c[nH]c(=O)[nH]c2=O)cc(N2C[C@H](OC(=O)NC(C)C)C(F)(F)C2)n1` [Example 29, (S)-4,4-difluoro-1-(2-methyl-2′,4′-dioxo-1′,2′,3′,4′-tetrahydro-[4,5′-bipyrimidin]-6-yl)pyrrolidin-3-yl isopropylcarbamate], the EC50 in test [1] is > 50 nM. Further, half-maximal inhibition in test [2] (IC50) was put at 13.1 nM.

`Cc1nc(-c2c[nH]c(=O)[nH]c2=O)cc(N2C[C@H](OC(=O)NC3(C(F)(F)F)CC3)C(F)(F)C2)n1` [Example 30, (S)-4,4-difluoro-1-(2-methyl-2′,4′-dioxo-1′,2′,3′,4′-tetrahydro-[4,5′-bipyrimidin]-6-yl)pyrrolidin-3-yl (1-(trifluoromethyl)cyclopropyl)carbamate] returned an EC50 in test [1] of 34.8 nM. In test [2], the IC50 amounted to 13 nM.
